From patent US20100105768A1, “MOLD-INHIBITING METHOD AND COMPOSITION” (priority 2008, published 2010) come the findings set out here.

SMILES strings stand for the structures.

One assay concerns mold/stain fungi. Nature of the assay: Dip treated fresh cut white pine blocks in sealed bags, visual mold and stain growth rating (Example 5). Format: cell-based. Conditions: 1% dip solution; for Visual evaluation Week 1 / Visual evaluation Week 2 / Visual evaluation Week 3 / Visual evaluation Week 4 / Visual evaluation Week 5 / Visual evaluation Week 6 / Visual evaluation Week 8: one minute, white pine blocks, no inoculation; for Efficacy against mold/stain fungi (in words): 8 weeks. The source says:
Fresh cut white pine blocks (7.6×6.35×3.8 cm^3) were dipped in the prepared test formulation for one minute. The individual dipped wood block was placed in a plastic sandwich bag and the plastic bag was sealed to retain the moisture of the test wood blocks. No mold or stain fungi were inoculated on the test blocks. […] The test was completed in 8 weeks.

In another assay the test system is A. niger and P. citrinum. Nature of the assay: Visual mold growth rating on gypsum cuboids placed on inoculated Sabouraud's Dextrose Agar (Example 2). The format is cell-based. Conditions: for Visual evaluation Week 1 / Visual evaluation Week 2 / Visual evaluation Week 3 / Visual evaluation Week 4: 26° C., 70% relative humidity. The source says:
Gypsum cuboids (30×40×25 mm^3) were made with the addition of the following formulations: • Sodium dehydroacetic acid (Na-DHA): 2500 ppm and 5000 ppm. • Carboquat® 250T ^3: 2500 ppm and 5000 ppm. • Carboquat® 250T/DHA 10:4 (wt./wt.): 2500 ppm and 5000 ppm. • ^3 Carboquat® 250T is an essentially aqueous solution containing approx. 50% of a mixture of carbonate and bicarbonate of didecyldimethylammonium. Carboquat® 250T is available from Lonza Inc., Allendale N.J.
Glass containers with Sabouraud's Dextrose Agar (SDA) on the bottom were prepared. Freshly-made spore suspensions of A. niger and P. citrinum were spread on the surface of SDA. The gypsum cuboids were air-dried and then placed on the top of the inoculated SDA. The containers were covered by aluminum foil and placed in an incubator with pre-set temperature of 26° C. and relative humidity of 70%. The test was completed at 4 weeks. Visual observation of mold growth on the gypsum cuboids was recorded weekly using the same rating system as in Example 1.

On to `O=C([O-])c1ccccc1.[Na+]` [Na-Benzoate], for which, in the assay on mold/stain fungi, the “Visual evaluation Week 1” value is recorded as 2 (Medium mold growth (6-25% mold coverage)), the “Visual evaluation Week 2” value is on record as 4 (Severe mold growth (>50% mold coverage)), the “Visual evaluation Week 3” value was 4 (Severe mold growth (>50% mold coverage)) and the “Visual evaluation Week 4” value is reported as 4 (Severe mold growth (>50% mold coverage)). In the assay with mold/stain fungi, the “Visual evaluation Week 5” value was 4 (Severe mold growth (>50% mold coverage)), the “Visual evaluation Week 6” value is recorded as 4 (Severe mold growth (>50% mold coverage)), the “Visual evaluation Week 8” value was 4 (Severe mold growth (>50% mold coverage)) and the “Efficacy against mold/stain fungi (in words)” value was “no efficacy”.

On to `CC(=O)c1c([O-])cc(C)oc1=O.[Na+]` [Na-DHA, Sodium dehydroacetic acid], for which, in the assay on A. niger and P. citrinum (2500 ppm in gypsum cuboid), the “Visual evaluation Week 1” value turned out to be 0, the “Visual evaluation Week 2” value is 2 (Medium mold growth (6-25% mold coverage)), the “Visual evaluation Week 3” value was 3 (Heavy mold growth (26-50% mold coverage)) and the “Visual evaluation Week 4” value was 3 (Heavy mold growth (26-50% mold coverage)). Also, in the assay with A. niger and P. citrinum (5000 ppm), the “Mold growth on gypsum cuboids (in words)” value was “no mold growth”. Also, in the assay on A. niger and P. citrinum (5000 ppm in gypsum cuboid), the “Visual evaluation Week 1” value is 0, the “Visual evaluation Week 2” value is listed as 0, the “Visual evaluation Week 3” value is 0 and the “Visual evaluation Week 4” value is on record as 0. Moreover, in the assay with mold/stain fungi, the “Visual evaluation Week 1” value was found to be 0, the “Visual evaluation Week 2” value is on record as 0, the “Visual evaluation Week 3” value is given as 0 and the “Visual evaluation Week 4” value was determined as 0. In the assay on mold/stain fungi, the “Visual evaluation Week 5” value was 1 (Slight mold growth (<5% mold coverage)), the “Visual evaluation Week 6” value is 1 (Slight mold growth (<5% mold coverage)), the “Visual evaluation Week 8” value is given as 2 (Medium mold growth (6-25% mold coverage)) and the “Efficacy against mold/stain fungi (in words)” value is “strong efficacy”.

Consider `C/C=C/C=C/C(=O)[O-].[Na+]` [Na-Sorbate], for which, in the assay on mold/stain fungi, the “Visual evaluation Week 1” value was 2 (Medium mold growth (6-25% mold coverage)), the “Visual evaluation Week 2” value is 4 (Severe mold growth (>50% mold coverage)), the “Visual evaluation Week 3” value is recorded as 4 (Severe mold growth (>50% mold coverage)) and the “Visual evaluation Week 4” value is reported as 4 (Severe mold growth (>50% mold coverage)). In addition, in the assay on mold/stain fungi, the “Visual evaluation Week 5” value is reported as 4 (Severe mold growth (>50% mold coverage)), the “Visual evaluation Week 6” value is reported as 4 (Severe mold growth (>50% mold coverage)), the “Visual evaluation Week 8” value is 4 (Severe mold growth (>50% mold coverage)) and the “Efficacy against mold/stain fungi (in words)” value is “no efficacy”.
